Experiments:
MDA-MB-231 cells = assay: EGF-induced lamellipodia formation / F-actin staining; type: cell-based, human
Protocol: FIG. 5: Cytoskeletal changes induced by IODVA1 treatment. IODVA1 inhibits lamellipodia and circular dorsal ruffle (CDR) formation in MDA-MB-231 cells and decreases Rac activation. (A) IODVA1 inhibits EGF-induced lamellipodia formation in MDA-MB-231 cells. MDA-MB-231 cells were plated on fibronectin-coated coverslips, serum starved for 4 h, […], fixed and stained with Phalloidin Alexa Fluor 594 (F-Actin, pseudocolored red) and DAPI (nuclei, pseudocolored blue). Representative images show lamellipodia formation and enrichment of actin staining at the leading edge (white closed arrowheads) at 0 and 0.3 μM concentrations and lack of lamellipodia with rounded cell morphology at 1 and 3 μM. Note equally distributed phalloidin staining with presence of stress fibers in the cell body of the 1 and 3 μM treated-cells (white open arrowheads) indicative of stationary cells. Scale bar=10 μm. […] The percentage of cells with CDRs was counted as the number of cells with CDRs normalized to the total number of cells in the field. Around 150 cells were counted per condition per experiment. Cells with multiple CDRs were counted only once. […] Levels of active Rac (RacGTP, % of control), active Cdc42 (Cdc42GTP, % of control) and active RhoA (RhoAGTP, % of control) were quantified using ImageJ and ImageLab and show combined data as mean±s.e.m. from at least 3 independent experiments. […]

[1] = system: Rac-dependent and -independent effectors in EGFP+/B220+ LDBM cells; assay: Pharmacodynamic phospho-flow analysis of leukemic progenitor cells from treated p210(T315I) mice; type: in vivo; details: two-week treated mice
Text: LDBM cells were transduced with TKI-resistant p210-BCR-ABL1(T315I) (gatekeeper mutant) and transplanted into recipient mice as in FIG. 10. Pumps were surgically introduced into mice (N=5 per treatment group) and treatment lasted 28 days or two rounds of pumps. After 28 days, mice were monitored without any additional treatment. (A) Kaplan-Meier survival plot of imatinib-resistant mice. […] (B) Flow cytometric analysis of leukemic progenitor (EGFP^+) B-cells in peripheral blood (PB) at the indicated week. Only IODVA1-treated mice remained alive for analysis at weeks 5, 7, and 10.
To assess signaling pathways affected by IODVA1. EGFP^+/B220^+ LDBM cells were isolated from two-week treated p210(T315I) mice, stained with phospho-antibodies against the pro-proliferative Rac-dependent effectors JNK, PAK, 4EBP, and S6 and the Rac-independent effectors ERK1/2, STAT3, STAT5, p38, and AKT, and analyzed by flow cytometry. […] Phosphorylation levels of p38, ERK, STAT3, STAT5, and AKT were not affected by IODVA1. […] Taken together, IODVA1 not only overcomes TKI-resistance but also eliminates TKI-resistant leukemic stem/progenitor cells likely by acting on imatinib-independent growth signaling pathways that involve Rac effectors.

How did the “lamellipodia formation and enrichment of cortical filamentous actin” value (MDA-MB-231 cells; 0-3 μM for 1 h, then EGF for 30 min) turn out when `OC1(c2ccccn2)N=C(Nc2nc3ccccc3[nH]2)N=C1c1ccccn1` (stereo not shown) [IODVA1, (Z)-2-((1H-benzo[d]imidazol-2-yl)imino)-4,5-di(pyridin-2-yl)-2,5-dihydro-1H-imidazol-5-ol] was run?
The value was “inhibited”.

What about the “overall filamentous actin staining” value (MDA-MB-231 cells; EGF, wash out, then 3 μM within 30 min) of the same compound?
The value was “qualitatively reduced”.

And the “phosphorylation levels of p38, ERK, STAT3, STAT5, and AKT” value [1]?
The value was “not affected”.

And the “decrease in pS6” value ([1]; p=0.0012)?
The value was 17.8%.

What about the “decrease in pPAK” value ([1]; p=0.0016) of the same compound?
Its value is 56%.

What about the “decrease in pJNK” value ([1]; p=0.0029) of the same compound?
The value was 55%.

And the “decrease in p4EBP” value ([1]; p=0.037)?
Its value is 20.3%.

From patent publication US11564913B2, “Compositions and methods for treating cancer” (Children's Hospital Medical Center, priority 2019, dated 2023)
